Source: PMC12714101, “CD160-Derived Peptide as a Bidirectional Inhibitor Toward Immune Checkpoints BTLA/HVEM and HVEM/LIGHT” (Journal of Medicinal Chemistry, 2025)
Where a SMILES comes first, the peptide text is derived from it.

Assays:
BTLA/HVEM interaction = experiment: Cellular reporter assay, HVEM reporter cells (JE6.1-NF-κB::eGFP) stimulated with TCS-BTLA; assay type: cell-based, human; conditions: 30 min preincubation, 24 h coculture, NF-κB::eGFP by flow cytometry, mean of four independent experiments in duplicate; for Inhibition - Cellular assay 16.67 µM: peptide 16.67 μM; for Inhibition - Cellular assay 50 µM: peptide 50 μM; for Inhibition - Cellular assay 150 µM: peptide 150 μM
Protocol: In the next step of the study, the inhibitory properties of the designed peptides were evaluated using previously described cell-based assays. The experiment utilized reporter cells expressing HVEM (JE6.1-NF-κB::eGFP) and T cell stimulator cells expressing BTLA (TCS-BTLA). Activation of the reporter cells by TCS followed a two-signal model. The first is generated through the interaction between the T cell receptor–cluster of differentiation 3 (TCR–CD3) complex on the surface of the reporter cells and a membrane-bound antihuman CD3 single-chain antibody fragment (mAb aCD3) expressed on the TCS cells. The second signal is provided by the binding of HVEM and BTLA, which in this assay results in a strong costimulatory signal via HVEM. Activation of the reporter cells leads to the expression of nuclear factor kappa light chain enhancer of activated B cells (NF-κB), which correlates with the level of enhanced green fluorescent protein (eGFP), measured by flow cytometry. In the absence of peptides, NF-κB expression is normalized to 100%. Disruption of the BTLA/HVEM interaction by peptides results in a concentration-dependent decrease in NF-κB levels. In this study, HVEM-expressing reporter cells were stimulated with BTLA-expressing TCS cells in the presence or absence of tested peptides at three different concentrations.
Cellular studies were performed in the same procedure as we described previously for gD- and BTLA-derived peptides. , The peptides were dissolved in the medium, and their final concentrations in wells were 150, 50, and 16,7 μM. Briefly, reporter cells expressing HVEM (JE6.1-NF-κB::eGFP) (5 × 10^4 cells/well) were preincubated with peptides for 30 min in a 96-well flat-bottom plate. Subsequently, the second cell line expressing BTLA (TCS BTLA) or LIGHT (TCS LIGHT) (2 × 10^4 cells/well) was added and cocultured for 24 h at 37 °C in an atmosphere of 5% CO2. Next, an APC-conjugated mCD45.2 antibody to exclude TCS from the reporter cells was added. The expression of the reporter gene (eGFP) was measured via flow cytometry using a CytoFLEX flow cytometer (Beckman Coulter Inc., Brea, CA, USA), and the results were analyzed using FlowJo v10.10 (FlowJo LLC, Ashland, OR, USA). The data were analyzed using GraphPad Prism 8 software (San Diego, CA, USA).

BTLA/HVEM complex = target: T1, BTLA/HVEM complex (Homo sapiens, UniProt Q92956); experiment: ELISA inhibition of BTLA/HVEM complex formation; assay type: biochemical; conditions: immobilized HVEM-His, BTLA-Fc 5 μg/mL, PBS-T, 37 °C, mean of three independent experiments; for inhibition at 16.67 µM: peptide 16.67 μM; for inhibition at 50 µM: peptide 50 μM; for inhibition at 150 µM: peptide 150 μM
T1 construct: purchased ACROBiosystems HVM-H52E9 (HVEM-His); BTA-H5255 (BTLA-Fc)
T1 sequence (Q92956 39-202 limits assumed): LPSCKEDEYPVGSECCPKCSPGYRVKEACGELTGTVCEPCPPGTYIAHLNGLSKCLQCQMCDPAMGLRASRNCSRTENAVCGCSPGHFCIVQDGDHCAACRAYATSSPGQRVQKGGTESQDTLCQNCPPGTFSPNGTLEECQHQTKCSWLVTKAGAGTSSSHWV
Protocol: In the subsequent stage of the study, the potential of the obtained compounds to inhibit the interaction between BTLA and HVEM proteins was evaluated using ELISA, following the methodology described in our previous studies. , HVEM was immobilized on the plate and incubated with peptides at three different concentrations, followed by the addition of Fc-tagged BTLA. Detection was carried out using horseradish peroxidase (HRP) conjugated with anti-human IgG and 3,3′,5,5′-tetramethylbenzidine (TMB) as a substrate. Signal intensity was directly proportional to the amount of BTLA bound to HVEM and inversely proportional to the inhibitory activity of the tested peptides. As a control, BTLA and HVEM were incubated in the absence of peptides.
Recombinant human HVEM protein with a His tag was purchased from ACROBiosystems, Newark, DE, USA (no. HVM-H52E9). Recombinant human protein BTLA-Fc and LIGHT-Fc were also purchased from ACROBiosystems, Newark, DE, USA (no. BTA-H5255 and no. LIT-H5269).
ELISA was performed using transparent 96-well NUNC Maxisorp plates (Thermo Fisher Scientific, Waltham, MA, USA). In the first step, HVEM-His, dissolved in PBS at a concentration of 5 μg/mL (100 μL/well), was immobilized on the plate by overnight incubation at 4 °C. Wells were then blocked with 5% bovine serum albumin (BSA) in PBS containing 0.05% Tween 20 (PBS-T) (200 μL/well). Next, peptides dissolved in PBS-T at concentrations of 150, 50, and 16.67 μM were added to the wells (100 μL/well). Following this, BTLA-Fc in PBS-T at a concentration of 5 μg/mL (100 μL/well) was applied. In the next step, goat anti-human IgG antibody conjugated with the HRP (Bio-Rad Laboratories, Hercules, CA, USA) in PBS-T at a ratio of 1:30,000 (v/v) was added (100 μL/well). Colorimetric detection was performed by adding 100 μL of TMB substrate (Thermo Fisher Scientific, Waltham, MA, USA) to each well and incubating the plate in the dark. At each stage, plates were incubated at 37 °C with continuous shaking for 1 h (except TMB, which was incubated for 15 min). After each incubation, wells were washed five times with PBS-T. Absorbance was measured using an Infinite M200 Pro Reader (Tecan Group Ltd., Männedorf, Switzerland) at wavelengths of 650 nm (measurement wavelength) and 492 nm (reference wavelength). Inhibition assays for the HVEM/LIGHT complex were conducted using the same approach, except that LIGHT was used instead of BTLA. The BTLA/HVEM and HVEM/LIGHT complexes without peptides served as controls. Inhibition percentages were calculated based on the assumption that PBS-T has no effect on the formation of BTLA/HVEM or HVEM/LIGHT complexes. Each ELISA was conducted in at least three independent replicates. The data were analyzed using GraphPad Prism 8 software (San Diego, CA, USA).

Jurkat E6.1 cells = conditions: 150 µM
Protocol: (§1) Before conducting cellular assays, the effects of the peptides on cell viability in Jurkat E6.1 and T cell stimulator (TCS) cell lines, as well as their stability in cell culture supernatant, were evaluated. Jurkat E6.1 cells are human T cell acute lymphoblastic leukemia cells, while TCS is a modified murine thymoma cell line (BW5147). The cellular platforms described below are based on these cells. […] The stability of the peptides in supernatant collected from cells after 24 h of incubation was also assessed.
(§2) Comparison of the binding affinity obtained from SpS and MM-GBSA
(§3) Table S3. Experimental and theoretical binding affinities for the BTLA/HVEM and HVEM/peptide complexes. Experimental Kd values obtained from SpS were used to calculate the corresponding ΔG, while theoretical ΔG values were obtained from MM-GBSA analysis. protein/protein ΔG ΔG obtained from or K [µmol] SD calculated SD MM-GBSA SD
(§4) The cytotoxicity of the peptides against two cell lines, Jurkat E6.1 and TCS, was examined. To estimate the number of viable cells, the CellTiter-Glo® luminescence-based assay

[1] = test system: T cell stimulator (TCS) cell line (BW5147); conditions: 150 µM
Protocol: as §1, §2, §3, §4

With `CC(=O)N[C@@H](Cc1ccccc1)C(=O)N[C@H](C(=O)N[C@H](C(=O)N[C@@H](Cc1ccccc1)C(=O)N[C@@H](CC(C)C)C(=O)N[C@H]1CSSC[C@@H](C(=O)N[C@@H](CO)C(=O)N2CCC[C@H]2C(=O)N[C@@H](CCC(=O)O)C(=O)N[C@H](C(=O)N[C@@H](CO)C(=O)N[C@@H](CC(C)C)C(=O)N[C@@H](CCCCN)C(=O)N[C@@H](CCC(N)=O)C(=O)N[C@@H](CC(C)C)C(=O)N[C@@H](CCCNC(=N)N)C(=O)N[C@@H](CC(C)C)C(N)=O)[C@@H](C)O)NC(=O)[C@H](CC(=O)O)NC(=O)CNC(=O)[C@H](CO)NC(=O)[C@H](CCCNC(=N)N)NC(=O)[C@H](CC(=O)O)NC(=O)[C@H](CCCCN)NC1=O)C(C)C)C(C)C` [B5, CD160(56–79)] (HELM PEPTIDE1{[ac].F.V.V.F.L.C.K.D.R.S.G.D.C.S.P.E.T.S.L.K.Q.L.R.L.[am]}$PEPTIDE1,PEPTIDE1,7:R3-14:R3$$$V2.0) the “Inhibition - Cellular assay 16.67 µM” value (BTLA/HVEM interaction) was 12.02%, the “Inhibition - Cellular assay 50 µM” value (BTLA/HVEM interaction) was 12.02% and the “Inhibition - Cellular assay 150 µM” value (BTLA/HVEM interaction) was 2.50%. The inhibition at 16.67 µM (BTLA/HVEM complex) was -7.56%, the inhibition at 50 µM (BTLA/HVEM complex) was -7.13% and the inhibition at 150 µM (BTLA/HVEM complex) was -4.6%. The “Cell viability, Jurkat E6.1” value (Jurkat E6.1 cells) was 75%.
With `CC(=O)N[C@@H](Cc1ccccc1)C(=O)N[C@@H](CC(C)C)C(=O)N[C@H]1CSSC[C@@H](C(=O)N[C@@H](CO)C(=O)N2CCC[C@H]2C(=O)N[C@@H](CCC(=O)O)C(=O)N[C@H](C(=O)N[C@@H](CO)C(=O)N[C@@H](CC(C)C)C(=O)N[C@@H](CCCCN)C(N)=O)[C@@H](C)O)NC(=O)[C@H](CC(=O)O)NC(=O)CNC(=O)[C@H](CO)NC(=O)[C@H](CCCNC(=N)N)NC(=O)[C@H](CC(=O)O)NC(=O)[C@H](CCCCN)NC1=O` [C3, CD160(59–75)] (HELM PEPTIDE1{[ac].F.L.C.K.D.R.S.G.D.C.S.P.E.T.S.L.K.[am]}$PEPTIDE1,PEPTIDE1,4:R3-11:R3$$$V2.0) the “Inhibition - Cellular assay 16.67 µM” value (BTLA/HVEM interaction) was 5.70%, the “Inhibition - Cellular assay 50 µM” value (BTLA/HVEM interaction) was 4.25% and the “Inhibition - Cellular assay 150 µM” value (BTLA/HVEM interaction) was 4.78%. The inhibition at 16.67 µM (BTLA/HVEM complex) was 1.86%, the inhibition at 50 µM (BTLA/HVEM complex) was 2.02% and the inhibition at 150 µM (BTLA/HVEM complex) was 0.4%.
With `CC[C@H](NC(=O)[C@H](CCC(N)=O)NC(=O)[C@H](Cc1ccc(O)cc1)NC(C)=O)C(=O)N[C@@H](CC)C(=O)N[C@H]1CSSC[C@@H](C(=O)N[C@@H](CCC(N)=O)C(=O)NCC(=O)N[C@@H](Cc2c[nH]cn2)C(=O)N[C@@H](Cc2ccccc2)C(=O)N[C@@H](Cc2ccccc2)C(N)=O)NC(=O)[C@H](CCCNC(=N)N)NC(=O)[C@H]([C@@H](C)CC)NC(=O)CNC(=O)[C@H](CO)NC(=O)[C@H](CCCCN)NC(=O)[C@H](CCC(N)=O)NC(=O)[C@H](CO)NC(=O)[C@H](CCCNC(=N)N)NC1=O` [A4, CD160(110–128)^(C112X,C113X,A114C,L123C)] (HELM PEPTIDE1{[ac].Y.Q.[Abu].[Abu].C.R.S.Q.K.S.G.I.R.C.Q.G.H.F.F.[am]}$PEPTIDE1,PEPTIDE1,6:R3-15:R3$$$V2.0) the inhibition at 16.67 µM (BTLA/HVEM complex) was -2.23%, the inhibition at 50 µM (BTLA/HVEM complex) was -0.34% and the inhibition at 150 µM (BTLA/HVEM complex) was -1.77%.
For `CC[C@@H]1NC(=O)[C@H](CC(C)C)NC(=O)[C@H](Cc2ccccc2)NC(=O)[C@H](C(C)C)NC(=O)[C@@H](NC(=O)[C@H](Cc2ccccc2)NC(C)=O)CSSC[C@@H](C(=O)N[C@@H](CC(C)C)C(N)=O)NC(=O)[C@H](CC(C)C)NC(=O)[C@H](CCC(N)=O)NC(=O)[C@H](CCCCN)NC(=O)[C@H](CC(C)C)NC(=O)[C@H](CO)NC(=O)[C@H]([C@@H](C)O)NC(=O)[C@H](CCC(=O)O)NC(=O)[C@@H]2CCCN2C(=O)[C@H](CO)NC(=O)[C@H](CC)NC(=O)[C@H](CC(=O)O)NC(=O)CNC(=O)[C@H](CO)NC(=O)[C@H](CCCNC(=N)N)NC(=O)[C@H](CC(=O)O)NC(=O)[C@H](CCCCN)NC1=O` [B2, CD160(56–79)^(V57C,C61X,C68X,R78C)] (HELM PEPTIDE1{[ac].F.C.V.F.L.[Abu].K.D.R.S.G.D.[Abu].S.P.E.T.S.L.K.Q.L.C.L.[am]}$PEPTIDE1,PEPTIDE1,3:R3-24:R3$$$V2.0), the inhibition at 16.67 µM (BTLA/HVEM complex) was -3.89%, the inhibition at 50 µM (BTLA/HVEM complex) was -2.56% and the “Cell viability, TCS” value [1] was 9%. The “Cell viability, Jurkat E6.1” value (Jurkat E6.1 cells) was 47%.
